Results: patent US9458104B2 (priority 2012, dated 2016)

Legend:
[1] = target: T1, RORγ ligand binding domain (LBD) (Homo sapiens, UniProt P51449); assay: TR-FRET Activity Assay (ligand sensing assay, RORγ-LBD / coactivator peptide interaction); format: biochemical
T1 construct: made in house; host or cells: E. coli BL-21 (BL3), vector pDEST15
T1 sequence (P51449 269-508 limits assumed): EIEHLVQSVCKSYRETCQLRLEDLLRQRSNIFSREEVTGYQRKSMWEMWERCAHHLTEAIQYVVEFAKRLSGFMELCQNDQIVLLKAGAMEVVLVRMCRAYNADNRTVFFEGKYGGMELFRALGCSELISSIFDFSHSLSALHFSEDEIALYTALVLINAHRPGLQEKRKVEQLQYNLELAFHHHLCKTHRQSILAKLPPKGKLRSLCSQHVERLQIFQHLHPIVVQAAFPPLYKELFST
In short: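 GST-RORγ LBD expressed in bacteria, 20–60 ng/well, with biotinylated coactivator peptide 200–600 nM, streptavidin-APC and Eu-anti-GST. Buffer: 20 mM Tris-HCl pH 6.8, 60 mM KCl, 1 mM DTT, 5 mM MgCl2, BSA; 1% DMSO. LANCE TR-FRET 665/615 nm ratio; IC50 from four-parameter logistic fit.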

[2] = target: T2, RORγ (UniProt P51449); format: cell-based; conditions: 293T cells, 16 h; for pIC50 (FF): firefly (FF) luciferase; for pIC50 (REN): renilla normalised (RENnorm) luciferase
T2 construct: hRORg-LBD|aa259-518|NP_005051.2; hRORgt|aa1-497|NP_001001523 (RORg, t isoform, 497aa); mRORg-LBD|aa264-516|NP_035411
T2 sequence (P51449 1-518): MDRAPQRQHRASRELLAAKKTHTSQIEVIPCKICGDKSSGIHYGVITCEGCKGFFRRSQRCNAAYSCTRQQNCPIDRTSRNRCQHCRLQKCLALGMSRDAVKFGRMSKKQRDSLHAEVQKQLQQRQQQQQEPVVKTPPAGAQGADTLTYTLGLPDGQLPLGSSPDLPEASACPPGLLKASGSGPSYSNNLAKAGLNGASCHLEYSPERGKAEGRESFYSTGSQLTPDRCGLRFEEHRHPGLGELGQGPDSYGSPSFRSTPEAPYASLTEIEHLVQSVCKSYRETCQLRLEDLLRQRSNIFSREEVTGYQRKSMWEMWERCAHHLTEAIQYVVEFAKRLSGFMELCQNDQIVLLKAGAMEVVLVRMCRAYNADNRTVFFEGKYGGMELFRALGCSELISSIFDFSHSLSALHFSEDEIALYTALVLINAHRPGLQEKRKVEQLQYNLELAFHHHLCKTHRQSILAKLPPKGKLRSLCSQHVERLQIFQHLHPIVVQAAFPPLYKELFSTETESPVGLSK

SMILES	IC50 [1] [µM]	pIC50 (FF) [2]	pIC50 (REN) [2]
Cc1c(C(=O)NCCC(C)(C)C(=O)O)c(C#N)n(-c2ccc(S(=O)(=O)NC(C)(C)C)c(C(F)(F)F)c2)c1CC1CCCCC1 [Example 10, 4-(1-(4-(N-(tert-Butyl)sulfamoyl)-3-(trifluoromethyl)phenyl)-2-cyano-5-(cyclohexylmethyl)-4-methyl-1H-pyrrole-3-carboxamido)-2,2-dimethylbutanoic acid]	1.58	6.9	6.9
CC(C)(C)c1cc(-c2[nH]c(C(=O)NC3CCOCC3)cc2CC2CCCCC2)cc(C2(C)CC2)c1 [Example 12, 5-(3-(tert-Butyl)-5-(1-methylcyclopropyl)phenyl)-4-(cyclohexylmethyl)-N-(tetrahydro-2H-pyran-4-yl)-1H-pyrrole-2-carboxamide]	1	6.9	6.8
CC(C)(C)c1cc(-c2[nH]c(C(=O)N[C@H]3C[C@H](C(=O)O)C3)cc2CC2CCCCC2)cc(C2(C)CC2)c1 [Example 12/2]	1.26	6.6	6.6
Cc1c(C(=O)NC2CCOCC2)cn(-c2cc(C(C)(C)C)cc(C3(C)CC3)c2)c1C(=O)N1CCCCC1 [Example 13, 1-(3-(tert-Butyl)-5-(1-methylcyclopropyl)phenyl)-4-methyl-5-(piperidine-1-carbonyl)-N-(tetrahydro-2H-pyran-4-yl)-1H-pyrrole-3-carboxamide]	1	7.1	7.1
Cc1c(C(=O)N[C@H]2C[C@H](C(=O)O)C2)cn(-c2cc(C(C)(C)C)cc(C3(C)CC3)c2)c1C(=O)N1CCCCC1 [Example 13/1]	1	6.7	6.8
COC(c1c(C)c(C(=O)NC2CCOCC2)cn1-c1cc(C(C)(C)C)cc(C2(C)CC2)c1)C1CCCCC1 (stereo not drawn) [Example 14, 1-(3-(tert-Butyl)-5-(1-methylcyclopropyl)phenyl)-5-(cyclohexyl(methoxy)methyl)-4-methyl-N-(tetrahydro-2H-pyran-4-yl)-1H-pyrrole-3-carboxamide]	2	6.1	6.3
COC(c1c(C)c(C(=O)N[C@H]2C[C@H](C(=O)O)C2)cn1-c1cc(C(C)(C)C)cc(C2(C)CC2)c1)C1CCCCC1 (stereo partly drawn) [Example 14/1]	1.58	6.6	6.6
Cc1c(C(=O)NC2CCOCC2)cn(-c2cc(C(C)(C)C)cc(C3(C)CC3)c2)c1C(O)C1CCCCC1 (stereo not drawn) [Example 15, 1-(3-(tert-Butyl)-5-(1-methylcyclopropyl)phenyl)-5-(cyclohexyl(hydroxy)methyl)-4-methyl-N-(tetrahydro-2H-pyran-4-yl)-1H-pyrrole-3-carboxamide]	0.631	7.0	7.0
Cc1c(C(=O)N[C@H]2C[C@H](C(=O)O)C2)c(C)n(-c2cc(C(C)(C)O)cc(C3(C)CC3)c2)c1CC1CCCCC1 [Example 16, trans-3-(5-(Cyclohexylmethyl)-1-(3-(2-hydroxypropan-2-yl)-5-(1-methylcyclopropyl)phenyl)-2,4-dimethyl-1H-pyrrole-3-carboxamido)cyclobutanecarboxylic acid]	1.58	6.6	6.7
CC(C)(O)c1cc(-c2cc(C(=O)N[C@H]3C[C@H](C(=O)O)C3)[nH]c2CC2CCCCC2)cc(C2(C)CC2)c1 [Example 17, trans-3-(5-(Cyclohexylmethyl)-4-(3-(2-hydroxypropan-2-yl)-5-(1-methylcyclopropyl)phenyl)-1H-pyrrole-2-carboxamido)cyclobutanecarboxylic acid]	1.26	6.4	6.3
CC(C)(C)c1cc(-c2cc(C(=O)N[C@H]3C[C@H](C(=O)O)C3)[nH]c2CC2CCCCC2)cc(C2(C)CC2)c1 [Example 17/1]	0.794	7.0	7.1
CC(C)(C)c1cc(-c2[nH]c(C(=O)N[C@H]3C[C@H](C(=O)O)C3)c(Cl)c2CC2CCCCC2)cc(C2(C)CC2)c1 [Example 18, trans-3-(5-(3-(tert-Butyl)-5-(1-methylcyclopropyl)phenyl)-3-chloro-4-(cyclohexylmethyl)-1H-pyrrole-2-carboxamido)cyclobutanecarboxylic acid]	1.26	6.6	6.5
Cn1c(C(=O)N[C@H]2C[C@H](C(=O)O)C2)c(Cl)c(CC2CCCCC2)c1-c1cc(C(C)(C)C)cc(C2(C)CC2)c1 [Example 18/1]	0.794	6.6	6.7
Cn1c(C(=O)N[C@H]2C[C@H](C(=O)O)C2)cc(CC2CCCCC2)c1-c1cc(C(C)(C)C)cc(C2(C)CC2)c1 [Example 19/1]	0.794	7.2	7.2
Cn1c(CC2CCCCC2)c(-c2cc(C(C)(C)C)cc(C3(C)CC3)c2)c(Cl)c1C(=O)N[C@H]1C[C@H](C(=O)O)C1 [Example 20, trans-3-(4-(3-(tert-Butyl)-5-(1-methylcyclopropyl)phenyl)-3-chloro-5-(cyclohexylmethyl)-1-methyl-1H-pyrrole-2-carboxamido)cyclobutanecarboxylic acid]	3.98	7.2	7.3
Cc1c(C(=O)N[C@H]2C[C@H](C(=O)O)C2)cn(-c2cc(C(C)(C)C)cc(C3(C)CC3)c2)c1SC1CCCCC1 [Example 21, trans-3-(1-(3-(tert-Butyl)-5-(1-methylcyclopropyl)phenyl)-5-(cyclohexylthio)-4-methyl-1H-pyrrole-3-carboxamido)cyclobutanecarboxylic acid]	0.794	8.0	8.2
Cc1c(C(=O)N[C@H]2C[C@H](C(=O)O)C2)cn(-c2cc(C(C)(C)C)cc(C3(C)CC3)c2)c1[S+]([O-])C1CCCCC1 (stereo partly drawn) [Example 22, trans-3-(1-(3-(tert-Butyl)-5-(1-methylcyclopropyl)phenyl)-5-(cyclohexylsulfinyl)-4-methyl-1H-pyrrole-3-carboxamido)cyclobutanecarboxylic acid]	2	7.1	7.1
Cc1c(C(=O)N[C@H]2C[C@H](C(=O)O)C2)cn(-c2cc(C(C)(C)C)cc(C3(C)CC3)c2)c1S(=O)(=O)C1CCCCC1 [Example 23, trans-3-(1-(3-(tert-Butyl)-5-(1-methylcyclopropyl)phenyl)-5-(cyclohexylsulfonyl)-4-methyl-1H-pyrrole-3-carboxamido)cyclobutanecarboxylic acid]	1.58	6.4	6.5
Cc1c(C(=O)NCCC(C)(C)C(=O)O)c(F)n(-c2ccc(S(=O)(=O)NC(C)(C)C)c(C(F)(F)F)c2)c1CC1CCCCC1 [Example 25, 4-(1-(4-(N-(tert-Butyl)sulfamoyl)-3-(trifluoromethyl)phenyl)-5-(cyclohexylmethyl)-2-fluoro-4-methyl-1H-pyrrole-3-carboxamido)-2,2-dimethylbutanoic acid]	0.631	8.3	8.3
Cn1c(C(=O)N[C@H]2C[C@H](C(=O)O)C2)cc(-c2cc(C(C)(C)C)cc(C3(C)CC3)c2)c1C(=O)C1CCCCC1 [Example 26, trans-3-(4-(3-(tert-Butyl)-5-(1-methylcyclopropyl)phenyl)-5-(cyclohexanecarbonyl)-1-methyl-1H-pyrrole-2-carboxamido)cyclobutanecarboxylic acid]	0.501	8.5	8.5
CC(C)(C)c1cc(-c2cc(C(=O)N[C@H]3C[C@H](C(=O)O)C3)nn2CC2CCCCC2)cc(C2(C)CC2)c1 [Example 100, (trans)-3-(5-(3-(tert-Butyl)-5-(1-methylcyclopropyl)phenyl)-1-(cyclohexylmethyl)-1H-pyrazole-3-carboxamido)cyclobutanecarboxylic acid]	0.501	6.9	7.0
CCNC(=O)c1cc(CC2CCCCC2)n(-c2cc(C(C)(C)C)cc(C(C)(C)C)c2)n1 [Example 102/1]	0.631	5.9	6.0
CC1(CNC(=O)c2nn(-c3cc(C(C)(C)C)nc(C(C)(C)C)c3)c(CC3CCCCC3)c2Cl)COC1 [Example 105, 4-Chloro-5-(cyclohexylmethyl)-1-(2,6-di-tert-butylpyridin-4-yl)-N-((3-methyloxetan-3-yl)methyl)-1H-pyrazole-3-carboxamide]	6.31	< 4.7	< 4.7
